Earlier results in patent publication US20110245183A1, “Topical Uses of Szeto-Schiller Peptides” (priority 2010, published 2011).
Where no end group is shown, it is not given here. [ ]: non-standard residue; d: D form. Dmt = Cc1cc(O)cc(C)c1C[C@H](N)C(=O)O

Assays:
isolated mitochondria = details: MPP+ (1-methyl-4-phenylpyridium)
[1] = system: Parkinson's Disease (PD) or Amyotrophic Lateral Sclerosis (ALS); details: mice studies

Substance	MPP+-induced inhibition of ATP production (isolated mitochondria)	MPP+-induced inhibition of oxygen consumption (isolated mitochondria)	MPP+-induced mitochondrial swelling (isolated mitochondria)	effectiveness in the treatment of Parkinson's Disease (PD) or Amyotrophic Lateral Sclerosis (ALS) [1]	inhibiting LDL oxidation (LDL)
Phe-D-Arg-Phe-Lys-NH2 (F[dR]FK-NH2; N-terminus assumed; SMILES N=C(N)NCCC[C@@H](NC(=O)[C@@H](N)Cc1ccccc1)C(=O)N[C@@H](Cc1ccccc1)C(=O)N[C@@H](CCCCN)C(N)=O) [SS-20]	prevented	prevented	prevented	may be effective	
D-Arg-2′,6′-Dmt-Lys-Phe-NH2 ([dR][Dmt]KF-NH2) [SS-31]	prevented	prevented	prevented	may be effective	as effective as SS-02
